From paper PMC5731250 (Cell, 2017)
Like-named read-outs stand apart in the source and are kept apart here.

What was measured:
[1] = test system: MOR; details: operational model; ref DeWire et al., 2013; cited from earlier work
[2] = test system: male C57BL/6J mice; assay: animal or person; type: in vivo; details: Mus musculus, ip, 1 h, read-out: ED50 (95% confidence intervals) Tail Flick
[3] = in vivo; details: male, C57BL/6J, mouse, ip
[4] = test system: male C57BL/6J mice; assay: animal or person; type: in vivo; details: Mus musculus, ip, 1 h, read-out: ED50 (95% confidence intervals) Hot Plate

| Compound | bias factor (G protein signaling over βarrestin pathway) [1] | ED50 [2] | ED50 [3] | ED50 ([3]; ED50 (95% confidence intervals) %O2 Saturation) | ED50 [4] |
| --- | --- | --- | --- | --- | --- |
| COc1ccsc1CNCC[C@@]1(c2ccccn2)CCOC2(CCCC2)C1 [TRV-130] | 3 | – | – | – | – |
| CN1CC[C@]23c4c5ccc(O)c4O[C@H]2[C@@H](O)C=C[C@H]3[C@H]1C5 [Morphine] | – | 3.8 mg/kg | 33 mg/kg | 79 mg/kg | 5.9 mg/kg |
